{"source": "patent US20260357349A1", "about": "“METHODS OF IDENTIFYING AND TREATING CANCER” (Agency for Science, Technology and Research, priority 2022, published 2026)", "key": {"[1]": {"test_system": "SMARCA4 and RELA interaction", "assay": "Co-immunoprecipitation of RELA with SMARCA4 after bortezomib", "type": "cell-based, human", "details": "bortezomib treatment", "text": "(§1) Data are presented as median+/−25%. Lower whisker is smallest observation greater than or equal to 25% quantile-1.5*interquantile range (IQR). Upper whisker represents the largest observation less than or equal to 75%+1.5*IQR. Amount of normalized RELA protein in the c) input or d) co-immunoprecipitated with SMARCA4 from 3 independent runs. […]"}, "[2]": {"test_system": "NF-κB target genes (786-O cells)", "assay": "RT-qPCR of NF-κB target genes after NF-κB inhibitor, 786-O", "type": "cell-based, human", "details": "0.006 μM bortezomib or 0.6 µM Bay 11-7085, 24 hours", "description": "(§2) Colony formation of parental (WT) or PBRM1 knockout (KO) 786-O cells expressing shRNA against non-targeting control (NC), RELA, or NFKB1 cultured with a) 10% or b) 2% serum. c) Gene expression changes of NF-κB target genes in 786-O cells treated with 0.006 μM bortezomib (BTZ) or 0.6 µM Bay 11-7085 for 24 hours (n=3 technical replicates). * p-value<0.05 (two-sided t-test). […] A positive log fold change refers to gain in bortezomib treatment over DMSO. g) Colony formation of 786-O isogenic cells and h) NCC432 isogenic cells treated with bortezomib for a week. Tumor formation of isogenic 786-O cells (i) and NCC432 cells (j) treated with PBS control or 0.5 mg/kg bortezomib (BTZ) in NSG mice. (n=10 tumors per group for 786-O, and n=16 tumors for NCC432 PBS EV group and 12 tumors for NCC432 PBS PBRM1 group and 14 tumors for both NCC432 EV and PBRM1 BTZ groups). Data are presented as mean values+/−SEM. k) Model for the study."}, "IκBα / NF-κB": {"test_system": "IκBα / NF-κB", "details": "mechanism; cited from earlier work"}, "[3]": {"test_system": "RELA occupancy on the chromatin (786-O cells)", "assay": "RELA ChIP after bortezomib, 786-O", "type": "cell-based, human", "description": "as §2, §1"}, "metastatic RCC": {"test_system": "metastatic RCC", "details": "monotherapy, cited from earlier work"}, "NCC432 tumors": {"test_system": "NCC432 tumors", "assay": "Tumor formation and survival of NSG mice bearing NCC432 isogenic cells", "type": "in vivo", "description": "as §2\nData are presented as median+/−25%. Lower whisker is smallest observation greater than or equal to 25% quantile-1.5*interquantile range (IQR). Upper whisker represents the largest observation less than or equal to 75%+1.5*IQR. Amount of normalized RELA protein in the c) input or d) co-immunoprecipitated with SMARCA4 from 3 independent runs. Data are presented as mean values+/−SD. e) Tornado plots of RELA and SMARCA4 ChIP-seq signals in parental 786-0 or PBRM1-KO 786-O cells treated with DMSO or 0.005 μM bortezomib for 9 hours. f) Kaplan-Meier curves of NSG mice bearing 786-O isogenic cells treated with PBRM1 control or 0.5 mg/kg bortezomib (WT: n=10 PBS arm, median survival=39 days; n=10 bortezomib arm, median survival=52 days, HR=4.1, p=3E-6, log rank test; KO: n=10 PBS arm, median survival=35 days, n=10 bortezomib arm, median survival=66 days, HR=4.1, p=3E-6, log rank test). g) Kaplan-Meier curves of NSG mice bearing NCC432 isogenic cells treated with PBRM1 control or 0.5 mg/kg bortezomib (EV: n=16 PBS arm, median survival=42 days; n=14 bortezomib arm, median survival=49 days, HR=2.5, p=0.0009, log rank test; PBRM1: n=12 PBS arm, median survival=55 days; n=14 bortezomib arm, median survival=58 days, HR=1.2, p=0.5, log rank test). h) 786-O PBRM1 WT or KO cells were screened against the high-specific SGC epigenetic probe collection and cell viability was measured by colony formation after 1 week of treatment relative to DMSO control.\nAll animal studies were conducted in compliance with animal protocols approved by Institutional Animal Care and Use Committee (IACUC) of Singapore. Female NOD/SCID mice (8-10 week old) were implanted subcutaneously with 1×10^6 786-0 cells with either wildtype PBRM1 or PBRM1 knocked out subcutaneously. Male NSG mice (The Jackson laboratory) were implanted with 1×10^6 A498, NCC2112 or NCC432 with or without PBRM1. Tumor volume was monitored every 3-4 days. Tumor volume was calculated as (length×width×width)×π/6. Animals were sacrificed when the tumor volume exceeded 2000 mm^3.\nBortezomib […] was given twice weekly (day1, day 4) to male NSG mice (The Jackson laboratory) via the tail vein. Tumor volume and body weight were monitored every 3-4 days."}, "[4]": {"details": "phase II trial of 37 patients with metastatic RCC"}}}
{"smiles": "CC(C)C[C@H](NC(=O)[C@H](Cc1ccccc1)NC(=O)c1cnccn1)B(O)O", "note": "[bortezomib]", "values": [{"measurement": "effect on interaction between SMARCA4 and RELA", "setting": "[1]", "value": "did not significantly affect"}, {"measurement": "suppressing the expression of NF-κB target genes", "setting": "[2]", "value": "effective at suppressing the expression of NF-κB target genes"}, {"measurement": "effect on IκBα and NF-κB DNA binding", "setting": "IκBα / NF-κB", "value": "induces nuclear translocation and accumulation of IκBα which then associates with nuclear NF-κB and inhibits its DNA binding activity"}, {"measurement": "RELA occupancy (figure title)", "setting": "[3]; 786-O, 0.005 μM bortezomib, 9 hours", "value": "abrogates RELA occupancy"}, {"measurement": "RELA occupancy on the chromatin, PB1 KO", "setting": "[3]; PB1 KO 786-O cells, ChIP-qPCR", "value": "profound reduction of RELA occupancy"}, {"measurement": "ranking of RCC response amongst solid tumors", "setting": "metastatic RCC; literature survey of 32 trials", "value": "most responsive tumor type amongst all solid tumors"}, {"measurement": "partial response", "setting": "metastatic RCC; [4]", "value": 4, "unit": "patients"}, {"measurement": "stable disease", "setting": "metastatic RCC; [4]", "value": 14, "unit": "patients"}, {"measurement": "survival, mice bearing PB1-deficient vs PB1-proficient cells", "setting": "NCC432 tumors; 0.5 mg/kg bortezomib", "value": "survived for a longer duration"}, {"measurement": "tumor response, PB1-deficient vs PB1-proficient isogenic cells", "setting": "NCC432 tumors; 0.5 mg/kg bortezomib, NSG mice", "value": "responded better"}, {"measurement": "median survival", "setting": "NCC432 tumors; NCC432 EV, 0.5 mg/kg bortezomib arm n=14, PBS arm 42 days", "value": 49, "unit": "days"}, {"measurement": "HR", "setting": "NCC432 tumors; NCC432 EV, bortezomib vs PBS, p=0.0009, log rank test", "value": 2.5}, {"measurement": "median survival", "setting": "NCC432 tumors; NCC432 PBRM1, 0.5 mg/kg bortezomib arm n=14, PBS arm 55 days", "value": 58, "unit": "days"}, {"measurement": "HR", "setting": "NCC432 tumors; NCC432 PBRM1, bortezomib vs PBS, p=0.5, log rank test", "value": 1.2}]}
